The subject of one data set is HepG2. In words: Hepatic absorption test. It is filed as in vitro ADME, Human. As to conditions: NAC 12 mM, VitD 100 nM, G 5 mM, LA 50 μM. The method, then: Human epithelial cells (HepG2) were purchased from ATCC, and cultured in DMEM supplemented with 10% FBS, L-glutamine 2 mM and 1% penicillin-streptomycin, at 37° C., 5% CO2.
The next data set concerns ERK/MAPK. As to conditions: liver level; NAC 12 mM, VitD 100 nM, G 5 mM, LA 50 μM. Here is the method: Human epithelial cells (HepG2) were purchased from ATCC, and cultured in DMEM supplemented with 10% FBS, L-glutamine 2 mM and 1% penicillin-streptomycin, at 37° C., 5% CO2. […] ERK/MAPK activity was measured by InstantOne™ ELISA (Thermo Fisher) on cell lysates following the manufacturer's instructions. The strips were measured by a spectrometer (VICTOR X4, multiwell plate reader) at 450 nm. Results were expressed as mean absorbance (%) compared with control.

A further data set concerns GTL-16 cell line. The following applies: pre-digested model, 2, 3, 4 and 6 hours; NAC 12 mM, VitD 100 nM, G 5 mM.
For another data set, the system named is NSC-34/IFRS1 co-culture. In words: Mitochondrial metabolism at Peripheral Nervous System level. It is filed as cell-based, rat. As to conditions: added to NAC 12 mM, VitD 100 nM, G 5 mM. Here is the method:
In order to recreate a peripheral nervous system in vitro, a myelinating co-culture system was used with an NSC-34 motor neuron-like cell line and an IFRS1 adult rat Schwann cell line according to a protocol reported in the literature. IFRS1 cells were seeded on 100-mm plastic discs (Greiner Bio-One GmbH, Frickenhausen, Germany, 664-160-013) at an approximate density of 2×10^4/cm^2 and maintained in DMEM containing 5% FBS, recombinant human eregulin-β (EMD Millipore, Billerica, MA, USA) 20 ng/mL, forskolin (Sigma, St. Louis, MO, USA) 5 μM and antifungal antibiotic solution (penicillin 100 U/mL, streptomycin 100 μg/mL and amphotericin 250 ng/mL; Sigma). NSC-34 cells were seeded on 100-mm plastic discs at an approximate density of 1×10^4/cm^2 and maintained in DMEM containing antibiotic antifungal solution and 5% FBS. At semi-confluence, cells were detached from the discs using 0.05% trypsin/EDTA 0.53 mM solution, suspended in DMEM/F12 Ham containing 5% FBS in a 50 mL polypropylene conical tube, and reseeded on Aclar fluorocarbon coverslips coated with poly-L-lysine/laminine, 12-well culture plates coated with type I collagen, and 2-well glass chamber slides coated with type I collagen at an approximate density of 2×10^3/cm^2. […]

Consider 2 compounds from patent US20250177338A1 (URIACH ITALY S.R.L., priority 2022, published 2025).

Method for GTL-16 cell line: The GTL-16 cell line, donated by the Laboratory of Histology, University of Eastern Piedmont (Italy), is a clonal line derived from a poorly differentiated gastric carcinoma cell line widely used as a model of gastric epithelial cells. Cells were cultured in Dulbecco's Modified Eagle medium (DMEM, Merck Life Science, Rome, Italy) supplemented with 10% fetal bovine serum (Fetal Bovine Serum, FBS), 1% penicillin-streptomycin, in an incubator at 37° C., 5% CO2. 1×10^4 cells were used to explore cell viability by MTT.
At the end of stimulation, cells were incubated with 1% MTT dye for 2 h at 37° C. in an incubator, 5% CO2 and 95% humidity, and then purple formazan crystals were dissolved in an equal volume of MTT solubilization solution.

Consider `N[C@@H](CCC(=O)N[C@@H](CS)C(=O)NCC(=O)O)C(=O)O` [glutathione, (2S)-2-amino-5-[[(2R)-1-(carboxymethylamino)-1-oxo-3-sulfanylpropan-2-yl]amino]-5-oxopentanoic acid], for which, in the data set on HepG2, the hepatic absorption entry is on record as “further increases hepatic absorption”. The ERK activity result in the data set on ERK/MAPK was “further enhances the conservation of these biological activities”. Besides, the cell viability entry in the data set with GTL-16 cell line was “contributes to increased cell viability”.

Regarding Vitamin D [VitD], in the data set on NSC-34/IFRS1 co-culture, the mitochondrial activity result is recorded as “contributes to increased mitochondrial activity”.
